# Values of other authors as cited in US20070010487A1 (priority 2005, published 2007).
# Target: P-gp efflux (Homo sapiens, UniProt P08183)
# Sequence (P08183 whole entry): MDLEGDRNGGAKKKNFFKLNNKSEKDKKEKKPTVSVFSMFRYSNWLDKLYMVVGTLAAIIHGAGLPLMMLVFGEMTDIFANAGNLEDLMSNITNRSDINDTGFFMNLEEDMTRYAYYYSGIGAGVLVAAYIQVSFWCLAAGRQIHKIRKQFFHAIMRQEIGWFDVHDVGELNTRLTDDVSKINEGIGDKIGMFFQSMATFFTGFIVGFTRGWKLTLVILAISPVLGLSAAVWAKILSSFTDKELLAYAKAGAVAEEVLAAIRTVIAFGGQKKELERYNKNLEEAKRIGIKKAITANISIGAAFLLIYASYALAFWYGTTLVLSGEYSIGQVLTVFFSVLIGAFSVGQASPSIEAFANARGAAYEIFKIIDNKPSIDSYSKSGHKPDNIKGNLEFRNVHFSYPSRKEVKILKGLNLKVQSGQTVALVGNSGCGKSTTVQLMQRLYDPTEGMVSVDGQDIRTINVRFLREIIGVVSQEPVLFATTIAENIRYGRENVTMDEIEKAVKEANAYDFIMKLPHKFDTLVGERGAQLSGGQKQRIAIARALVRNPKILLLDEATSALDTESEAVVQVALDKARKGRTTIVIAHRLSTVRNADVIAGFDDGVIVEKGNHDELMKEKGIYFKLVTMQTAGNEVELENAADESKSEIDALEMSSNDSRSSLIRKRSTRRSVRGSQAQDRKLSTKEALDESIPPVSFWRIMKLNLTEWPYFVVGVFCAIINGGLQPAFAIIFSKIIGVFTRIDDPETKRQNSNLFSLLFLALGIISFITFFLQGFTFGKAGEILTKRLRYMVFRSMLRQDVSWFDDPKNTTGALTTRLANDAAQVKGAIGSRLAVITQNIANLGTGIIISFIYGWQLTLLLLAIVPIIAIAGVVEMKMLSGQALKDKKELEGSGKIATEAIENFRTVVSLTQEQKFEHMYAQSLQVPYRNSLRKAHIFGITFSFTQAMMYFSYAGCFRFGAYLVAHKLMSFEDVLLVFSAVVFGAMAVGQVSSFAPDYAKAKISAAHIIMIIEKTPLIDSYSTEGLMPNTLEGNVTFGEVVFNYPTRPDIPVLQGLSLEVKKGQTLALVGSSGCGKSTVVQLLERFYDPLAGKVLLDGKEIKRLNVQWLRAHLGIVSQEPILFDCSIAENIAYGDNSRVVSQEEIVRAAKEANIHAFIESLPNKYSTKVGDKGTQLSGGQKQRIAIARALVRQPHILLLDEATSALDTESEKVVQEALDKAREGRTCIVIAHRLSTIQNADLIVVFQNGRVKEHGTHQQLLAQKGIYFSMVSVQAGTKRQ
smiles,measurement,value
O[C@@H](COc1cccc2ncccc12)CN1CCN([C@@H]2c3ccccc3[C@@H]3[C@H](c4ccccc42)C3(F)F)CC1 [Zosuquidar],substrate for P-gp efflux,does not appear to be a substrate for P-gp efflux
